Experiments:
[1] = xn = mol fraction of the nth substance listed; conditions: 100 kPa, Liquid, Falling or rolling sphere viscometry
[2] = refractive index (Na D-line) (dimensionless); xn = mol fraction of the nth substance listed; conditions: 100 kPa, Liquid, Standard Abbe refractometry

Nc1ccccc1 [aniline] + CCn1cc[n+](C)c1.F[B-](F)(F)F
Conditions	refractive index, 293.15 K	refractive index, 303.15 K	refractive index, 313.15 K	refractive index, 323.15 K	viscosity, 293.15 K [mPa·s]	viscosity, 303.15 K [mPa·s]	viscosity, 313.15 K [mPa·s]	viscosity, 323.15 K [mPa·s]
[1], x2 = 0	–	–	–	–	4.38	3.24	2.47	1.95
[1], x2 = 0.1008	–	–	–	–	6.84	4.88	3.66	2.66
[1], x2 = 0.2035	–	–	–	–	9.46	6.99	5.16	3.89
[1], x2 = 0.3059	–	–	–	–	12.58	8.93	6.81	5.07
[1], x2 = 0.4053	–	–	–	–	15.93	11.33	8.59	6.51
[1], x2 = 0.5073	–	–	–	–	20.31	14.07	10.48	7.99
[1], x2 = 0.6013	–	–	–	–	24.51	17.1	12.51	9.51
[1], x2 = 0.7046	–	–	–	–	28.93	20.39	14.91	11.06
[1], x2 = 0.8067	–	–	–	–	33.76	23.93	17.35	12.99
[1], x2 = 0.9059	–	–	–	–	39.55	27.15	19.68	14.9
[2], x2 = 0	1.58481	1.58152	1.57823	1.57494	–	–	–	–
[2], x2 = 0.1008	1.56571	1.56202	1.55833	1.55464	–	–	–	–
[2], x2 = 0.2035	1.54192	1.53814	1.53436	1.53058	–	–	–	–
[2], x2 = 0.3059	1.52125	1.51691	1.51285	1.5078	–	–	–	–
[2], x2 = 0.4053	1.50001	1.49592	1.49183	1.48774	–	–	–	–
[2], x2 = 0.5073	1.47963	1.47616	1.47269	1.46922	–	–	–	–
[2], x2 = 0.6013	1.46255	1.45885	1.45515	1.45245	–	–	–	–
[2], x2 = 0.7046	1.44852	1.44449	1.44126	1.43823	–	–	–	–
[2], x2 = 0.8067	1.43589	1.43188	1.42857	1.42556	–	–	–	–
[2], x2 = 0.9059	1.42458	1.42066	1.41748	1.41454	–	–	–	–
